Assay results taken from patent publication US5789431A, “Naphthoquinone antitumor compound and method” (The University of North Carolina at Chapel Hill, priority 1996, dated 1998).

What was measured:
MALME-3M = test: in vitro melanoma cell growth inhibition (NCI screen)
NCI-H460 = test: in vitro non-small cell lung cancer cell growth inhibition (NCI screen)
UACC-257 = test: in vitro melanoma cell growth inhibition (NCI screen)
UO-31 = test: in vitro renal cancer cell growth inhibition (NCI screen)
HOP-92 = test: in vitro non-small cell lung cancer cell growth inhibition (NCI screen)
HCT-116 = test: in vitro colon cancer cell growth inhibition (NCI screen)
NCI-H23 = test: in vitro non-small cell lung cancer cell growth inhibition (NCI screen)
SK-MEL-2 = test: in vitro melanoma cell growth inhibition (NCI screen)
SK-MEL-5 = test: as above
K-562 = test: in vitro leukemia cell growth inhibition (NCI screen)
OVCAR-3 = test: in vitro ovarian cancer cell growth inhibition (NCI screen)
SF-539 = test: in vitro CNS cancer cell growth inhibition (NCI screen)
NCI-H522 = test: in vitro non-small cell lung cancer cell growth inhibition (NCI screen)
M19-MEL = test: in vitro melanoma cell growth inhibition (NCI screen)
UACC-62 = test: as above
HL-60(TB) = test: in vitro leukemia cell growth inhibition (NCI screen)
SNB-75 = test: in vitro CNS cancer cell growth inhibition (NCI screen)
COLO-205 = test: in vitro colon cancer cell growth inhibition (NCI screen)
HCT-15 = test: as above
LOX1MVI = test: in vitro melanoma cell growth inhibition (NCI screen)
SR = test: in vitro leukemia cell growth inhibition (NCI screen)
DLD-1 = test: in vitro colon cancer cell growth inhibition (NCI screen)
LXFL 529 = test: in vitro non-small cell lung cancer cell growth inhibition (NCI screen)
RXF-393 = test: in vitro renal cancer cell growth inhibition (NCI screen)
XF-498 = test: in vitro CNS cancer cell growth inhibition (NCI screen)
MOLT-4 = test: in vitro leukemia cell growth inhibition (NCI screen)
PC-3 = test: in vitro prostate cancer cell growth inhibition (NCI screen)
M14 = test: in vitro melanoma cell growth inhibition (NCI screen)
MDA-MB-435 = test: in vitro breast cancer cell growth inhibition (NCI screen)
MCF7/ADR-RES = test: as above
human tumor cell lines = type: cell-based; conditions: Homo sapiens; cancer cell panel, general / most cell lines; read-out: logGI50 values in the cancer cell line panel (converted)
OVCAR-8 = test: in vitro ovarian cancer cell growth inhibition (NCI screen)
HT 29 = test: in vitro colon cancer cell growth inhibition (NCI screen)
OVCAR-4 = test: in vitro ovarian cancer cell growth inhibition (NCI screen); conditions: OVACR-4
T-47D = test: in vitro breast cancer cell growth inhibition (NCI screen)
SW 620 = test: in vitro colon cancer cell growth inhibition (NCI screen)
CCRF-CEM = test: in vitro leukemia cell growth inhibition (NCI screen)
RPMI-8226 = test: as above

| Compound | cytotoxicity log GI50 (MALME-3M) [M] | cytotoxicity log GI50 (NCI-H460) [M] | cytotoxicity log GI50 (UACC-257) [M] | cytotoxicity log GI50 (HOP-92) [M] | cytotoxicity log GI50 (HCT-116) [M] | cytotoxicity log GI50 (SK-MEL-2) [M] | cytotoxicity log GI50 (SK-MEL-5) [M] | cytotoxicity log GI50 (K-562) [M] | cytotoxicity log GI50 (OVCAR-3) [M] | cytotoxicity log GI50 (NCI-H522) [M] | cytotoxicity log GI50 (M19-MEL) [M] | cytotoxicity log GI50 (UACC-62) [M] | cytotoxicity log GI50 (HL-60(TB)) [M] | cytotoxicity log GI50 (COLO-205) [M] | cytotoxicity log GI50 (HCT-15) [M] | cytotoxicity log GI50 (LOX1MVI) [M] | cytotoxicity log GI50 (DLD-1) [M] | cytotoxicity log GI50 (RXF-393) [M] | cytotoxicity log GI50 (T-47D) [M] | other results |
| --- | --- | --- | --- | --- | --- | --- | --- | --- | --- | --- | --- | --- | --- | --- | --- | --- | --- | --- | --- | --- |
| Cc1nc2c(n1CC(C)C)C(=O)c1ccccc1C2=O [Compound 7] | -4.69 | -4.63 | -4.75 | -4.99 | -4.68 | -4.59 | -4.73 | -4.52 | -4.60 | -4.58 | -4.80 | -4.68 | -4.64 |  |  |  |  |  |  | cytotoxicity log GI50 (UO-31): -4.58 M; cytotoxicity log GI50 (NCI-H23): -4.74 M; cytotoxicity log GI50 (SF-539): -4.61 M |
| CCC(CC)n1c(C)nc2c1C(=O)c1ccccc1C2=O [Compound 10] | -4.58 | -4.68 | -4.62 | -4.65 | -4.71 | -4.56 | -4.80 | -4.68 | -4.59 |  | -4.83 | -4.99 | -4.97 | -4.57 | -5.04 | -4.71 | -4.61 |  |  | cytotoxicity log GI50 (SNB-75): -4.69 M; cytotoxicity log GI50 (UO-31): -4.71 M; cytotoxicity log GI50 (NCI-H23): -4.67 M; cytotoxicity log GI50 (SR): -4.59 M; cytotoxicity log GI50 (LXFL 529): -4.71 M |
| CCC(C)(C)n1c(C)nc2c1C(=O)c1ccccc1C2=O [Compound 12] |  | -4.91 |  |  | -4.87 | -4.73 | -4.80 | -4.87 |  |  | -4.80 | -4.87 | -5.12 | -4.77 | -4.64 | -4.71 | -4.81 | -4.68 |  | cytotoxicity log GI50 (SR): -5.03 M; cytotoxicity log GI50 (XF-498): -4.77 M; cytotoxicity log GI50 (LXFL 529): -4.86 M; cytotoxicity log GI50 (MOLT-4): -4.73 M |
| CCn1c(-c2ccccc2)nc2c1C(=O)c1ccccc1C2=O [Compound 25] | -5.06 |  | -5.41 |  |  |  | -4.95 |  | -5.23 | -4.82 |  |  |  | -4.85 |  |  |  | -4.81 | -5.65 | cytotoxicity log GI50 (SNB-75): -4.61 M; cytotoxicity log GI50 (PC-3): -4.99 M; cytotoxicity log GI50 (M14): -4.81 M; cytotoxicity log GI50 (MDA-MB-435): -4.80 M; cytotoxicity log GI50 (MCF7/ADR-RES): -4.88 M; GI50 (human tumor cell lines): ~10 µM; cytotoxicity log GI50 (OVCAR-8): -4.85 M; cytotoxicity log GI50 (HT 29): -5.05 M; cytotoxicity log GI50 (MOLT-4): -4.83 M; cytotoxicity log GI50 (OVCAR-4): -4.90 M |
| CCC(C)NC1=C(NC(C)=O)C(=O)c2ccccc2C1=O (stereo not shown) [Compound 30] |  |  |  |  |  |  |  | -4.36 | -4.39 |  |  |  | -4.76 |  | -4.34 | -4.81 | -4.56 |  |  | cytotoxicity log GI50 (SW 620): -4.65 M; cytotoxicity log GI50 (CCRF-CEM): -4.66 M; cytotoxicity log GI50 (RPMI-8226): -4.87 M |
| CCNC1=C(NC(=O)CC)C(=O)c2ccccc2C1=O [Compound 45] | -4.64 |  | -4.52 |  | -4.44 |  | -4.27 |  | -4.49 | -4.34 |  |  |  | -4.33 | -4.19 |  |  | -4.32 |  | cytotoxicity log GI50 (PC-3): -4.37 M; cytotoxicity log GI50 (M14): -4.50 M; cytotoxicity log GI50 (MCF7/ADR-RES): -4.23 M; cytotoxicity log GI50 (HT 29): -4.46 M; cytotoxicity log GI50 (SW 620): -4.22 M; cytotoxicity log GI50 (CCRF-CEM): -4.25 M |
| O=C(O)CCc1nc2c(n1-c1ccccc1)C(=O)c1ccccc1C2=O [Compound 60] |  |  |  | -7.65 | -4.30 |  |  |  |  | -4.42 |  |  |  |  |  |  |  |  | -4.19 |  |
| COc1ccc(-n2c(CCC(=O)O)nc3c2C(=O)c2ccccc2C3=O)cc1 [Compound 62] |  |  |  |  |  |  |  |  |  | -4.46 |  |  |  |  |  | -4.55 |  |  | -4.48 |  |
